Where “and” joins values, the source holds several entries; their conditions need not be identical. Equal values may be shown once. Read-outs that look alike come from different tables or passages of the source. *1 amine or outer side, *2 acyl side, *3 side chain or, on linkers, in order; H or OH if unused. Where a SMILES comes first, the peptide text is derived from it. Side-chain parts run from the residue outwards. [ ]: non-standard residue; d: D form. The star is where a group is joined. γGlu = O=C(O)[C@H](CCC(=O)[*:2])N[*:1]; αMeF = C[C@](N)(Cc1ccccc1)C(=O)O; αMeK = C[C@](N)(CCCCN)C(=O)O; Lauroyl = CCCCCCCCCCCC(=O)*; αMeS = C[C@](N)(CO)C(=O)O; AEEA = NCCOCCOCC(=O)O; Aib = CC(C)(N)C(=O)O
Key:
HSA [1] = biological target: T1, HSA (Homo sapiens, UniProt P02768); test: ITC titration of polysorbate into HSA in the absence and presence of MEDI7219; assay type: binding; conditions: for ΔG / ΔH / –TΔS / Kd: 30 °C; for Kd: [HSA] = 0.15 mM, read-out: dissociation constant; for αii (K A/B/K A): ratio of association constants with/without MEDI7219
T1 construct: purchased Sigma-Aldrich UK; host or cells: human serum
Protocol: Lyophilized protein powders were rehydrated by adding buffer to the protein to achieve a concentration of 10 mg/mL, then stored at 5 °C for 72 h or until fully dissolved. Polysorbate concentrations chosen were 0.1× and 1× the critical micelle concentration (CMC) of each respective polysorbate. Due to the dilution of injection by the ITC, polysorbate formulations were formulated at 10 times the desired concentration. ITC experiments were performed using a Microcal PEAQ-ITC instrument from Malvern Panalytical. Prior to each experiment, the sample cell and syringe were cleaned using 20% Contrad 70 detergent, rinsed with ultrapure water, and dried using methanol. Titration experiments were conducted at 30 °C to ensure that the experimental temperature was above laboratory ambient temperature. As the Microcal PEAQ-ITC lacks a cooling unit, it was necessary to conduct experiments at a temperature that could be maintained consistently. The reference cell was filled with ultrapure water for all experiments. The 200 μL sample cell was filled with protein solution, and the 40 μL injection syringe was filled with polysorbate solution and equilibrated at 5 °C below the experimental temperature. […] Experiments comprised 14 injections of 2.5 μL at an injection speed of 0.5 μL/s. The time between injections was set long enough to allow the heat signals to return to the baseline before the next injection. The solution in the reaction cell was continuously stirred at a speed of 500 rpm. Experiments requiring the titration of peptide or surfactant into protein–surfactant or protein–peptide required the continuation of one experiment into the next, to maintain precise concentration ratios between experimental pathways. As a result, once an experiment had concluded, excess solution was withdrawn and the next titration was conducted into the resulting solution. A reference experiment of polysorbate injected into buffer solution was conducted under identical conditions and subtracted from each run that contained polysorbate in the injection syringe. […] Data were analyzed using MicroCal PEAQ-ITC Analysis Software v1.41. The binding model was analyzed using the one set of binding sites software preset, resulting in the values of changes in the Gibbs free energy (ΔG), enthalpy (ΔH), and entropy in relation to temperature (−TΔS). Each experiment was repeated a minimum of three times to assess the reproducibility.

HSA [2] = biological target: T1, HSA; set-up: method as in not given; conditions: native GLP-1, reported value; ref not given; cited from earlier work
HSA [3] = biological target: T1, HSA; test: DSC thermal stability of HSA with MEDI7219 and polysorbates; assay type: physicochemical; conditions: DSC of 10 mg/mL HSA, no polysorbate, MEDI7219 10 mg/mL where ligand
Protocol: Lyophilized protein and MEDI7219 were rehydrated by adding buffer to achieve a concentration of 30 mg/mL, then stored at 5 °C for 72 h or until fully dissolved. Polysorbate solutions were prepared at 3 times higher than the desired concentration to account for dilution in the formulation after mixing with MEDI7219. Polysorbate concentrations in experiments were 0.1× and 1× each polysorbates respective CMC. Samples were produced by adding equal volumes of each component to provide the desired formulation. DSC experiments were conducted using a Microcal PEAQ-DSC instrument from Malvern Panalytical. Prior to each experiment, DSC cells were washed with 2% Decon 90 detergent and then rinsed with ultrapure water. The DSC capillary cell volume was 250 μL for both reference and sample cells; for each experiment, the reference cell contained buffer solution. […] A reference scan of the buffer solution was conducted under identical conditions and subtracted from each run. Data were analyzed using MicroCal PEAQ-DSC Analysis Software v1.64.

HSA [4] = biological target: T1, HSA; test: ITC titration of MEDI7219 into HSA in the absence and presence of polysorbate; assay type: binding; conditions: for Kd: read-out: dissociation constant; for αi (K B/A/K B): ratio of association constants with/without polysorbate
Protocol: Lyophilized protein powders were rehydrated by adding buffer to the protein to achieve a concentration of 10 mg/mL, then stored at 5 °C for 72 h or until fully dissolved. Polysorbate concentrations chosen were 0.1× and 1× the critical micelle concentration (CMC) of each respective polysorbate. Due to the dilution of injection by the ITC, polysorbate formulations were formulated at 10 times the desired concentration. ITC experiments were performed using a Microcal PEAQ-ITC instrument from Malvern Panalytical. Prior to each experiment, the sample cell and syringe were cleaned using 20% Contrad 70 detergent, rinsed with ultrapure water, and dried using methanol. Titration experiments were conducted at 30 °C to ensure that the experimental temperature was above laboratory ambient temperature. As the Microcal PEAQ-ITC lacks a cooling unit, it was necessary to conduct experiments at a temperature that could be maintained consistently. The reference cell was filled with ultrapure water for all experiments. The 200 μL sample cell was filled with protein solution, and the 40 μL injection syringe was filled with polysorbate solution and equilibrated at 5 °C below the experimental temperature. The reference power was set to 41.86 μJ/s (10 μcal/s). Experiments comprised 14 injections of 2.5 μL at an injection speed of 0.5 μL/s. The time between injections was set long enough to allow the heat signals to return to the baseline before the next injection. The solution in the reaction cell was continuously stirred at a speed of 500 rpm. Experiments requiring the titration of peptide or surfactant into protein–surfactant or protein–peptide required the continuation of one experiment into the next, to maintain precise concentration ratios between experimental pathways. As a result, once an experiment had concluded, excess solution was withdrawn and the next titration was conducted into the resulting solution. A reference experiment of polysorbate injected into buffer solution was conducted under identical conditions and subtracted from each run that contained polysorbate in the injection syringe. For experiments that contained MEDI7219 in the injection syringe, a control experiment could not be subtracted in the same manner as the polysorbate experiments. This was suspected to be a consequence of limitations in the software and the interactions generating small binding heats, leading to a noisier thermogram. However, a fitted offset was used instead, which reduced noise and allowed a smooth heat integration. Data were analyzed using MicroCal PEAQ-ITC Analysis Software v1.41. The binding model was analyzed using the one set of binding sites software preset, resulting in the values of changes in the Gibbs free energy (ΔG), enthalpy (ΔH), and entropy in relation to temperature (−TΔS). Each experiment was repeated a minimum of three times to assess the reproducibility.

[5] = polysorbate (1 × CMC) → HSA + MEDI7219
[6] = polysorbate (1 × CMC) → HSA + MEDI7219, [MEDI7219] = 2.5 mM
[7] = polysorbate (1 × CMC) → HSA, MEDI7219 absent
[8] = MEDI7219 → HSA + RG T20 (1 × CMC), 30 °C
[9] = MEDI7219 → HSA + RG T80 (1 × CMC), 30 °C
[10] = MEDI7219 → HSA + SR T20 (1 × CMC), 30 °C
[11] = MEDI7219 → HSA + SR T80 (1 × CMC), 30 °C
[12] = MEDI7219 → HSA, no polysorbate, 30 °C

polyoxyethylene (20) sorbitan monooleate [RG T80]
ΔG (HSA [1]; [5]): –16.00 (±0.80) kJ mol^–1 | ΔH (HSA [1]; [5]): –8.75 (±4.46) kJ mol^–1 | –TΔS (HSA [1]; [5]): –7.25 (±0.23) kJ mol^–1 | Kd (HSA [1]; [6]): 1.76 mM | αii (K A/B/K A) (HSA [1]; [5]): 0.57 | ΔG (HSA [1]; [7]): –17.40 (±0.87) kJ mol^–1 | ΔH (HSA [1]; [7]): –9.13 (±1.29) kJ mol^–1 | –TΔS (HSA [1]; [7]): –8.26 (±0.34) kJ mol^–1 | Kd (HSA [1]; [7]): 1.01 mM

native GLP-1: native glucagon-like peptide-1, literature comparison
association constant (HSA [2]): 2.3 × 10^8 M^–1

CCCCCCCCCCCC(=O)N[C@@H](CCC(=O)NCCOCCOCC(=O)NCCOCCOCC(=O)NCCCC[C@H](NC(=O)[C@H](C)NC(=O)[C@@H](NC(=O)[C@](C)(Cc1ccccc1)NC(=O)[C@H](CCC(=O)O)NC(=O)[C@](C)(CCCCN)NC(=O)[C@H](C)NC(=O)[C@H](C)NC(=O)[C@H](CCC(=O)O)NC(=O)CNC(=O)[C@H](CCC(=O)O)NC(=O)[C@H](CC(C)C)NC(=O)[C@H](CCCCNC(=O)COCCOCCNC(=O)COCCOCCNC(=O)CC[C@H](NC(=O)CCCCCCCCCCC)C(=O)O)NC(=O)[C@H](CO)NC(=O)[C@](C)(CO)NC(=O)[C@@H](NC(=O)[C@H](CC(=O)O)NC(=O)[C@H](CO)NC(=O)[C@@H](NC(=O)[C@](C)(Cc1ccccc1)NC(=O)[C@H](CO)NC(=O)CNC(=O)[C@H](CCC(=O)O)NC(=O)C(C)(C)NC(=O)[C@@H](N)Cc1c[nH]cn1)[C@@H](C)O)C(C)C)[C@@H](C)CC)C(=O)N[C@H](C(=O)N[C@H](C(=O)N[C@@H](CCC(=O)O)C(=O)NCC(=O)NCC(N)=O)C(C)C)C(C)C)C(=O)O [MEDI7219] (H-H[Aib]EGS[αMeF]TSDV[αMeS]SK([AEEA-AEEA-γGlu-Lauroyl])LEGEAA[αMeK]E[αMeF]IAK([AEEA-AEEA-γGlu-Lauroyl])VVEGG-NH2; N-terminus and C-terminus assumed)
Tm 2 (HSA [3]): 74 °C and 74.0 (±0.1) °C | total area (HSA [3]; 20–105 °C at 60 °C/h): 806.3 (±5.8) kJ/mol | ΔG (HSA [4]; [8]): –21.8 (±0.87) kJ mol^–1 | –TΔS (HSA [4]; [8]): –15.3 (±1.28) kJ mol^–1 | Kd (HSA [4]; [8]): 176 µM | ΔH (HSA [4]; [9]): 25.3 (±0.70) kJ mol^–1 | –TΔS (HSA [4]; [9]): –52.1 (±4.34) kJ mol^–1 | Kd (HSA [4]; [9]): 24 µM | αi (K B/A/K B) (HSA [4]; MEDI7219 → HSA + RG T80 (1 × CMC)): 1.68 | ΔH (HSA [4]; [10]): 27.8 (±9.32) kJ mol^–1 | –TΔS (HSA [4]; [10]): –52.5 (±4.35) kJ mol^–1 | Kd (HSA [4]; [10]): 55.6 µM | ΔH (HSA [4]; [11]): 25.4 (±1.03) kJ mol^–1 | –TΔS (HSA [4]; [11]): –51.3 (±6.16) kJ mol^–1 | Kd (HSA [4]; [11]): 35.1 µM | αi (K B/A/K B) (HSA [4]; MEDI7219 → HSA + SR T80 (1 × CMC)): 1.30 | ΔH (HSA [4]; [12]): 35.4 (±8.19) kJ mol^–1 | –TΔS (HSA [4]; [12]): –60.9 (±7.70) kJ mol^–1 | Kd (HSA [4]; MEDI7219 → HSA, no polysorbate, 30 °C, [HSA] = 0.15 mM, [MEDI7219] = 2.5 mM, average across all experiments): 40.3 µM | association constant (HSA [4]; MEDI7219 → HSA, no polysorbate, 30 °C, example titration): 2.4 × 10^4 M^–1 | decrease of dissociation constant of MEDI7219 (HSA [4]; in the presence of RG T80 versus its absence): 2 fold

Polyoxyethylene (20) sorbitan monolaurate [SR T20]
ΔG (HSA [1]; [5]): –16.10 (±0.81) kJ mol^–1 | ΔH (HSA [1]; [5]): –4.19 (±0.62) kJ mol^–1 | –TΔS (HSA [1]; [5]): –11.90 (±0.50) kJ mol^–1 | Kd (HSA [1]; [6]): 1.69 mM | αii (K A/B/K A) (HSA [1]; [5]): 0.43 | ΔG (HSA [1]; [7]): –18.20 (±0.91) kJ mol^–1 | ΔH (HSA [1]; [7]): –43.10 (±6.15) kJ mol^–1 | –TΔS (HSA [1]; [7]): 24.90 (±1.03) kJ mol^–1 | Kd (HSA [1]; [7]): 0.721 mM

Polyoxyethylene (20) sorbitan monolaurate [RG T20]
ΔG (HSA [1]; [5]): –15.40 (±0.77) kJ mol^–1 | ΔH (HSA [1]; [5]): –9.07 (±9.4 × 10^–7) kJ mol^–1 | –TΔS (HSA [1]; [5]): –6.36 (±0.26) kJ mol^–1 | Kd (HSA [1]; [6]): 2.21 mM | αii (K A/B/K A) (HSA [1]; [5]): 0.47 | ΔG (HSA [1]; [7]): –17.30 (±0.87) kJ mol^–1 | ΔH (HSA [1]; [7]): –83.70 (±36.7) kJ mol^–1 | –TΔS (HSA [1]; [7]): 66.40 (±2.74) kJ mol^–1 | Kd (HSA [1]; [7]): 1.03 mM

polyoxyethylene (20) sorbitan monooleate [SR T80]
ΔG (HSA [1]; [5]): –16.80 (±0.84) kJ mol^–1 | ΔH (HSA [1]; [5]): –8.72 (±2.7 × 10^–5) kJ mol^–1 | –TΔS (HSA [1]; [5]): –8.09 (±0.33) kJ mol^–1 | Kd (HSA [1]; [6]): 1.28 mM | αii (K A/B/K A) (HSA [1]; [5]): 0.40 | ΔG (HSA [1]; [7]): –19.10 (±0.10) kJ mol^–1 | ΔH (HSA [1]; [7]): –30.10 (±2.02) kJ mol^–1 | –TΔS (HSA [1]; [7]): 11.00 (±0.45) kJ mol^–1 | Kd (HSA [1]; [7]): 0.513 mM

— paper PMC12135063, “Pharmaceutical Analysis of Protein–Peptide Coformulations and the Influence of Polysorbates” (Molecular Pharmaceutics, 2025)
